{"source": "patent US7112562B2", "about": "(Diatos, S.A., priority 2001, dated 2006)", "system": "Caco-2 cell monolayers", "test": "Trans-epithelial transport of D-[14C]-mannitol and L-[3H]-proline in presence of DPV", "format": "cell-based", "conditions": "30 μg/ml", "experimental": "Trans-epithelial transport experiments were carried out."}
{"sequence": "SSRRARRSPRHLGSG (listed as Homo sapiens) [DPV10]", "values": [{"measurement": "effect on amounts of D-[14C]-mannitol and L-[3H]-proline associated with the cells at the end of the experiment", "setting": "Caco-2, 8 hours, FIG. 4", "result": "did not affect"}, {"measurement": "effect on transport of D-[14C]-mannitol or L-[3H]-proline", "setting": "Caco-2, FIG. 3", "result": "did not affect"}]}
